Data reported in US12473262B2, “Aryl hydrocarbon receptor activators” (Oregon State University, priority 2019, dated 2025).
Like-named read-outs stand apart in the source and are kept apart here.

How the values were obtained:
[1] = molecular target: CYP-2C9 (Homo sapiens (Human), UniProt P11712); test: CYP panel profile: P450 inhibition, CYP-2C9; type: in vitro ADME; conditions: human liver microsomes
Method: (§1) 5. CYP Panel Profile: P450 Inhibition
(§2) From 10 mM stock solutions of test compounds, a dilution plate was prepared diluting serially starting from 5 mM up to 2 μM in Acetonitrile/DMSO or Methanol/DMSO Human liver Microsomes were added at required concentration as per specific CYP isoform in a deep well assay plate (1A2, 2C9, 2D6, 2B6, 2C8, 2C19, and 3A4). Compounds were spiked in all wells from dilution plate at final concentrations starting from 50 μM up to 0.02 μM, except for positive and negative control. Specific substrate were added to all wells and reactions were pre-incubated for 10 min. To start reactions, NADPH was added to all wells at 1 mM final concentration. Assay plate was mixed by vortexing and incubated at 37° C. for […] for 3A4.20 min for (1A2, 2C9, 2B6, 2C8, 2D6) and […] for 2C19. A quencher with chilled acetonitrile suitable internal standard was added. Samples were centrifuged and supernatants were collected and subjected to LC-MS/MS analysis for determination.

[2] = molecular target: CYP-2D6 (Homo sapiens (Human), UniProt P10635); test: CYP panel profile: P450 inhibition, CYP-2D6; type: in vitro ADME; conditions: human liver microsomes
CYP-2D6, sequence (P10635 whole entry): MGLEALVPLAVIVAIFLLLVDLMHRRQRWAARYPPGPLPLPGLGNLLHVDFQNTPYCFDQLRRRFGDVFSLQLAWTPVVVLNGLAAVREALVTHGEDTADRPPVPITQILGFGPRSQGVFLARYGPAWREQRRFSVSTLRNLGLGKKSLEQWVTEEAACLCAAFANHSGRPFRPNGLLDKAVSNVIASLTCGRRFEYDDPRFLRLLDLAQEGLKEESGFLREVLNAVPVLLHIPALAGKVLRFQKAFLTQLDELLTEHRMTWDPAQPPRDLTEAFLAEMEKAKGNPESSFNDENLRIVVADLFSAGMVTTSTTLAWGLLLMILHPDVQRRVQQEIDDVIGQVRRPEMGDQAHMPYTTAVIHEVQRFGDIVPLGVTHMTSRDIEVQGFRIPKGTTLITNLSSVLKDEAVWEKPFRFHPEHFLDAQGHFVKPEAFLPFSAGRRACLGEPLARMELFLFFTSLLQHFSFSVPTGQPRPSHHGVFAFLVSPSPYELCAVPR
Method: as §1, §2

[3] = Liver microsomal stability, rat; conditions: for Rem @ RLM × 30 min: rat liver microsomes, 1 μM compound, 0.5 mg/ml protein; for half-life at 1 μM / microsomal CLint at 1 μM: rat, liver microsomes, pH 7.4
[4] = molecular target: CYP-2C19 (Homo sapiens (Human), UniProt P33261); test: CYP panel profile: P450 inhibition, CYP-2C19; type: in vitro ADME; conditions: human liver microsomes
CYP-2C19, sequence (P33261 whole entry): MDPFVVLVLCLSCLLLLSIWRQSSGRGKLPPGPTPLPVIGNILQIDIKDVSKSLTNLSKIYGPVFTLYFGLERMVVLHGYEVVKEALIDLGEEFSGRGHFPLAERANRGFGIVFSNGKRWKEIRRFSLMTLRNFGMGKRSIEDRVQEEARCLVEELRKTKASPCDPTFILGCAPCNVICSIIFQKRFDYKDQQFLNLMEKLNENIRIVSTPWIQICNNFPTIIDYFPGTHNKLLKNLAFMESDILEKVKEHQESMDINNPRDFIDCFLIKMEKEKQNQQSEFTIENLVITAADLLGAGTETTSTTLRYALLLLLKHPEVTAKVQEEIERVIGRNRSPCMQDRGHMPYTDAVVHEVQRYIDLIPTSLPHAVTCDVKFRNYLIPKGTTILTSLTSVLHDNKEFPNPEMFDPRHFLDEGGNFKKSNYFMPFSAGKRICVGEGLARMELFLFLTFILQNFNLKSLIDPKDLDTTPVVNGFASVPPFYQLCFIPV
Method: as §1, §2

[5] = molecular target: CYP-3A4 (Homo sapiens (Human), UniProt P08684); test: CYP panel profile: P450 inhibition, CYP-3A4; type: in vitro ADME; conditions: human liver microsomes
CYP-3A4, sequence (P08684 whole entry): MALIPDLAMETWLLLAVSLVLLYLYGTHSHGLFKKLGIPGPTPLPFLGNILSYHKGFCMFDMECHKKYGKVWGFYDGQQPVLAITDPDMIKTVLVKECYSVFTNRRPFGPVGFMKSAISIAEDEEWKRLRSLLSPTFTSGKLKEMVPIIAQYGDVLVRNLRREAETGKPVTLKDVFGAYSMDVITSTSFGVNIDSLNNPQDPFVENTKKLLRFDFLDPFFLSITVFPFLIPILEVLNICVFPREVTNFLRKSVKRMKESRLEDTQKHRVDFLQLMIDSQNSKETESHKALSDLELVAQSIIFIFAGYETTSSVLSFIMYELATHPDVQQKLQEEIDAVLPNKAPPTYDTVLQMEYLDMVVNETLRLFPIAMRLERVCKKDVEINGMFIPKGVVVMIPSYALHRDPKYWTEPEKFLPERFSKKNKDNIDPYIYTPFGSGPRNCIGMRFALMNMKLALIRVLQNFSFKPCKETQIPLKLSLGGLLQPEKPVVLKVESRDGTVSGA
Method: as §1, §2

[6] = molecular target: CYP-1A2 (Homo sapiens (Human), UniProt P05177); test: CYP panel profile: P450 inhibition, CYP-1A2; type: in vitro ADME
CYP-1A2, sequence (P05177 whole entry): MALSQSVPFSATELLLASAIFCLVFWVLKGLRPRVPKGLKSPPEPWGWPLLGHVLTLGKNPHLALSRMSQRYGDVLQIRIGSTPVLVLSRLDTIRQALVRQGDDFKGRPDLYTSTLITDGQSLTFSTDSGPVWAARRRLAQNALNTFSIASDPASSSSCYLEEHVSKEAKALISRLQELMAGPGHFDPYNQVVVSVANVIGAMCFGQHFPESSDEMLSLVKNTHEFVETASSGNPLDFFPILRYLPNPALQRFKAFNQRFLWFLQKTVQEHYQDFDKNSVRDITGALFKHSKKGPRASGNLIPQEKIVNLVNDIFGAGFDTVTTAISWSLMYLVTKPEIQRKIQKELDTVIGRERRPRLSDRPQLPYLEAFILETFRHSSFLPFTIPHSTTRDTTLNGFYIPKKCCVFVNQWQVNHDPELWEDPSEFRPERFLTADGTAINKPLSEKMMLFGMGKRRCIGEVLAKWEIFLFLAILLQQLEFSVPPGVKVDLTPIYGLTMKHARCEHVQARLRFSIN
Method: as §1, §2

[7] = molecular target: CYP-2C8 (Homo sapiens (Human), UniProt P10632); test: CYP panel profile: P450 inhibition, CYP-2C8; type: in vitro ADME; conditions: human liver microsomes
Method: as §1, §2

[8] = molecular target: aryl hydrocarbon receptor (AhR) (Mus musculus (Mouse), UniProt P30561); test: AhR ligand screening: AhRE-luciferase reporter in transfected Hepa1 cells; type: cell-based; conditions: for Fold @ 1 nM: fold change of luciferase expression at 1 nM test compound relative to vehicle (0.1% DMSO); for Fold @ 100 nM: fold change of luciferase expression at 100 nM test compound relative to vehicle (0.1% DMSO); for Fold @ 10 uM: fold change of luciferase expression at 10 uM test compound relative to vehicle (0.1% DMSO); for Fold relative to benchmark @ 100 nM: luciferase expression at 100 nM test compound relative to 100 nM benchmark compound 11-cl-BBQ
aryl hydrocarbon receptor (AhR), sequence (P30561 10-805): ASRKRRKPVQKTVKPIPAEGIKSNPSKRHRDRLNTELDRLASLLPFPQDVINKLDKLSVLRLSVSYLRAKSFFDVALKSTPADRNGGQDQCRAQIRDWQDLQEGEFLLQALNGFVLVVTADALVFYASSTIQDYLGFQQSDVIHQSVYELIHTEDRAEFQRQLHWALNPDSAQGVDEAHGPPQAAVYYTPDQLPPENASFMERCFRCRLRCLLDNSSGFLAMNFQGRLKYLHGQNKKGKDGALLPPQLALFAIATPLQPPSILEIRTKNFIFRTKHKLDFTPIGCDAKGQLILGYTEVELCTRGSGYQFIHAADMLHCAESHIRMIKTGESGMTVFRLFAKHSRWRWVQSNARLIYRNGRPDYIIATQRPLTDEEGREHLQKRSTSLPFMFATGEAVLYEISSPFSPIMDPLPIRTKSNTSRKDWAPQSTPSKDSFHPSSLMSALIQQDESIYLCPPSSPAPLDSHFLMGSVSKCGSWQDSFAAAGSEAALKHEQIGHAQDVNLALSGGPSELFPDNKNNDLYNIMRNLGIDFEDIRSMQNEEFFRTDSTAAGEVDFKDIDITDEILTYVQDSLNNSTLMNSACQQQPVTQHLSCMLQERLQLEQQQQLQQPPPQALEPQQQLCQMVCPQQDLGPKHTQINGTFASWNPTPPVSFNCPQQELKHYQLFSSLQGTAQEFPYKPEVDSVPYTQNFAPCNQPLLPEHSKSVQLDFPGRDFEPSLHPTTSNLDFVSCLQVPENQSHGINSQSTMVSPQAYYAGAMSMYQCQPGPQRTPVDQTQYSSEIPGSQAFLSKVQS
aryl hydrocarbon receptor (AhR), sequence (P53762 whole entry partner): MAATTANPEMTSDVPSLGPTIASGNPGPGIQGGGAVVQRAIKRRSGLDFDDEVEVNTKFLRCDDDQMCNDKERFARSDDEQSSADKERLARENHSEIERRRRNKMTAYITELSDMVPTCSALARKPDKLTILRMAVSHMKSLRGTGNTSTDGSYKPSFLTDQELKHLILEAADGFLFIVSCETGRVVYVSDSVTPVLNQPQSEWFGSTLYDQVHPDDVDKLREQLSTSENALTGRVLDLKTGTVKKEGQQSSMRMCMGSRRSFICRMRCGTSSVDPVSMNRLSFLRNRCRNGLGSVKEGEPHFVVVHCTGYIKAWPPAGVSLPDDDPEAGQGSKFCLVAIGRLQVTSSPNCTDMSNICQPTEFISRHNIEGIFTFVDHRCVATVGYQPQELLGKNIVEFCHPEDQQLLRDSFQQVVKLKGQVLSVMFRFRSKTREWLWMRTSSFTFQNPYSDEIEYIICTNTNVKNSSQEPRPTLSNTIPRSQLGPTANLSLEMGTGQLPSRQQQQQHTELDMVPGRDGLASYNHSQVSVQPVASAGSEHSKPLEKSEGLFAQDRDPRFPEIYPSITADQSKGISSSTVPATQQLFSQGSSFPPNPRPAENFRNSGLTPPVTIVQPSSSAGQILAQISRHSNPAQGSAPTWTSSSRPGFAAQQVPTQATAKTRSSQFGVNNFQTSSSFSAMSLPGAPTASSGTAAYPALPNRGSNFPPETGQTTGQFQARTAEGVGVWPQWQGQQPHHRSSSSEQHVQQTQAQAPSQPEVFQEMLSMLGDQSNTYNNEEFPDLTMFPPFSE
In short: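 Mouse Hepa1 cells transfected with an AhRE-luciferase reporter were plated at 1×10^4 cells/well, grown overnight, then exposed to compounds. Cell lysates were assayed for luciferase by luminometry, with results given as fold induction over 0.1% DMSO vehicle.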

[9] = Liver microsomal stability, human; conditions: for Rem @ HLM × 30 min: human liver microsomes, 1 μM compound, 0.5 mg/ml protein; for half-life at 1 μM / microsomal CLint at 1 μM: human, liver microsomes, pH 7.4
Method: (§3) The assessment of metabolic stability of testing compounds was performed using human, mouse, rat, dog and monkey liver microsomes (20 mg protein/ml). Each reaction mixture contained 42.5 μL of 0.1 M potassium phosphate buffer pH 7.4, containing respective LM protein (final concentration 0.5 mg/ml). 2.5 μL of the compound stock solution was added in it (1 μM final concentration). The reaction was initiated by the addition of 5 μL NADPH solution (final Concentration 1 mM). At different time points (0, 5, 15, and 30 minutes), samples were quenched with 200 μL of cold acetonitrile containing ISTD Propranolol. Samples were centrifuged at 3500 rpm for 20 mM at 4° C. Supernatant was subjected to LC-MS/MS analysis for quantification. Verapamil was used as a positive control.

[10] = Liver microsomal stability, mouse; conditions: for Rem @ MLM × 30 min: mouse liver microsomes, 1 μM compound, 0.5 mg/ml protein; for half-life at 1 μM / microsomal CLint at 1 μM: mouse, liver microsomes, pH 7.4
Method: as §3

[11] = molecular target: CYP-2B6 (Homo sapiens (Human), UniProt P20813); test: CYP panel profile: P450 inhibition, CYP-2B6; type: in vitro ADME; conditions: human liver microsomes
CYP-2B6, sequence (P20813 whole entry): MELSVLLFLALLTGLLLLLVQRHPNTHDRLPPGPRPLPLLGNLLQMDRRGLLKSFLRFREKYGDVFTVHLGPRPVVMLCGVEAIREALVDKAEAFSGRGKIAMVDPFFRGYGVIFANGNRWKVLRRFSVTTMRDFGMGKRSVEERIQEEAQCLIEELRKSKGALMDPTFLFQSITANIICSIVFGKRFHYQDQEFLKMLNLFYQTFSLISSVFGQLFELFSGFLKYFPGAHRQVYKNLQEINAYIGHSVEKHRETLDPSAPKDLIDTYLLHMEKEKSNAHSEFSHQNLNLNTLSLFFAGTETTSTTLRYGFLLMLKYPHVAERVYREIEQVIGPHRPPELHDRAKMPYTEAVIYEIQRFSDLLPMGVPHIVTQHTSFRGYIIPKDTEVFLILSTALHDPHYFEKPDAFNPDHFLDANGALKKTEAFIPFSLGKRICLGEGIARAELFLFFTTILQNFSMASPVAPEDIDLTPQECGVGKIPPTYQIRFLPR
Method: as §1, §2

[12] = human liver microsomes, read-out: CYP-1A2 IC50

CYP-2C9, sequence (P11712 whole entry): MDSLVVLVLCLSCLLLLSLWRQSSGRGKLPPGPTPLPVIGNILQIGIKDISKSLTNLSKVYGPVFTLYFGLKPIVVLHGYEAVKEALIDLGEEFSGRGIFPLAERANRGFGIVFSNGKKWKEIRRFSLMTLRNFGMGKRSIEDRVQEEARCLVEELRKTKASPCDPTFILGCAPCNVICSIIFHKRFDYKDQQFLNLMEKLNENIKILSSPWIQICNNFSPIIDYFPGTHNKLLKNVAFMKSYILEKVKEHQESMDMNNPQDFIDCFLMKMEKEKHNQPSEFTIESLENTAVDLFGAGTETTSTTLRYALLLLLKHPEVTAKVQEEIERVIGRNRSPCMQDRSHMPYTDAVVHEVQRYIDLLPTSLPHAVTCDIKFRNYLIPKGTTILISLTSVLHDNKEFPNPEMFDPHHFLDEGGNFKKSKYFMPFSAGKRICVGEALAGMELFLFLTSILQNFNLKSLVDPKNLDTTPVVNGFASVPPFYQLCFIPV

SMILES | IC50 [1] | IC50 [2] | Rem @ RLM × 30 min [3] | half-life at 1 μM [3] | microsomal CLint at 1 μM [3] | IC50 [4] | IC50 [5] | IC50 [6, 12] | IC50 [7] | Fold @ 1 nM [8] | Fold @ 100 nM [8] | Fold @ 10 uM [8] | Fold relative to benchmark @ 100 nM [8] | Rem @ HLM × 30 min [9] | half-life at 1 μM [9] | microsomal CLint at 1 μM [9] | Rem @ MLM × 30 min [10] | half-life at 1 μM [10] | microsomal CLint at 1 μM [10] | IC50 [11] | also measured
O=C(c1ccc(F)c(F)c1)n1c(-c2ccc(-c3ccccc3)cc2)nc2ccc(Cl)cc21 [Compound 644] | 2.7 µM | 8.2 µM | 36.8% | 28.7 min | 48 µL/min/mg | > 50 µM | > 50 µM | 4.7 µM | 1.7 µM | 1 fold | 1 fold | 2 fold | 0.11 fold | 69.8% | 77.9 min | 18 µL/min/mg | 71.7% | 70.5 min | 20 µL/min/mg | > 50 µM | 
O=S(=O)(c1ccc(C(F)(F)F)cc1)n1c(-c2cccc3ccccc23)nc2ccc(Cl)cc21 [Compound 782] | > 50 µM | > 50 µM | 31.8% | 17.8 min | 78 µL/min/mg | 6 µM | 0.4 µM | 47.9 µM | > 50 µM | 1 fold | 23 fold | 19 fold | 0.92 fold | 66.4% | 50.5 min | 27.4 µL/min/mg | 14.9% | 10.9 min | 127 µL/min/mg | > 50 µM | 
O=C(c1ccc(F)c(F)c1)n1c(-c2cccc3ccccc23)cc2cc(Cl)ccc21 [Compound 973] | > 50 µM | > 50 µM | 46.3% | 26.5 min | 52.3 µL/min/mg | 23.1 µM | > 50 µM |  | > 50 µM | 1 fold | 1 fold | 1 fold | 0.02 fold | 34.2% | 16.7 min | 83.1 µL/min/mg | 58.7% | 39.9 min | 34.8 µL/min/mg | > 50 µM | IC50 [6]: > 50 µM
COc1ccc(C(=O)n2c(-c3cccc4ccccc34)nc3cc(Cl)ccc32)cc1 [Compound 535, (5-chloro-2-(naphthalen-1-yl)-1H-benzo[d]imidazol-1-yl)(4-methoxyphenyl)methanone] | 2.5 µM | > 50 µM |  |  |  | 2.1 µM | 0.2 µM | 3.9 µM | 21.8 µM | 1 fold | 38 fold | 44 fold | 0.95 fold |  |  |  |  |  |  | 21.5 µM | 
O=C(c1ccc(F)c(F)c1)n1c(-c2cccc3ccccc23)nc2cc(Cl)ccc21 [Compound 529] | 3.5 µM | > 50 µM |  |  |  | 3.6 µM | 1.2 µM | 0.6 µM | 9.6 µM | 2 fold | 41 fold | 52 fold | 1.03 fold |  |  |  |  |  |  | 9.6 µM | 
Clc1ccc2c(c1)nc1n2Cc2cccc3cccc-1c23 [Compound 435, 6-chloro-3,10-diazapentacyclo[10.7.1.0^2,10.0^4,9.0^16,20]icosa-1(19),2,4(9),5,7,12,14,16(20),17-nonaene] | > 50 µM | > 50 µM |  |  |  | > 50 µM | 5.3 µM |  | 19.2 µM | 4 fold | 28 fold | 60 fold | 0.7 fold |  |  |  |  |  |  | > 50 µM | IC50 [6]: < 0.02 µM
O=C(c1ccc(F)c(F)c1)n1c(-c2cccc3ccccc23)nc2cc(Cl)ccc21 [Compound 530] | 5 µM | > 50 µM |  |  |  | 3.4 µM | 3.7 µM | 0.5 µM | 9.4 µM | 2 fold | 39 fold | 56 fold | 0.98 fold |  |  |  |  |  |  | 9.4 µM | 
O=C(C1CC1)n1c(-c2cccc3ccccc23)cc2cc(Cl)ccc21 [Compound 972] | 7 µM | > 50 µM | 20.7% | 13.3 min | 105 µL/min/mg | 0.2 µM | > 50 µM | 7 µM | > 48.8 µM | 1 fold | 2 fold | 45 fold | 0.04 fold | 73.0% | 74.9 min | 18.5 µL/min/mg | 26.7% | 15.9 min | 87.1 µL/min/mg | 4.3 µM | 
O=C(c1ccc(F)cc1)n1c(-c2cccc3ccccc23)nc2ccc(Cl)cc21 [Compound 587] | 5.3 µM | 26 µM |  |  |  | 6.7 µM | 6.3 µM | 0.4 µM | 3.2 µM | 2 fold | 16 fold | 19 fold | 1.07 fold |  |  |  |  |  |  | 11.6 µM | 
